According to ChEMBL document CHEMBL2074169, “Contribution of organic anion transporting polypeptide to uptake of its possible substrates into rat hepatocytes” (J Pharmacol Exp Ther, 1999):
Structures can show the parent of a compound that is named as a salt.

B1: Solute carrier organic anion transporter family member 1A1 (Rattus norvegicus) (protein)
chain: MEETEKKIATQEGRLFSKMKVFLLSLTCACLTKSLSGVYMNSMLTQIERQFDISTSVAGLINGSFEIGNLFFIVFVSYFGTKLHRPVVIGIGCVIMGLGCLLMSLPHFFMGRYEYETTISPTGNLSSNSFLCMENRTQTLKPTQDPAECVKEMKSLMWICVMVGNIIRGIGETPIVPLGISYIEDFAKSENSPLYIGILEMGKVAGPIFGLLLGSYCAQIYVDIGSVNTDDLTITPSDTRWVGAWWIGFLVCAGVNILTSIPFFFLPKALPKKGQQENVAVTKDGKVEKYGGQAREENLGITKDFLTFMKRLFCNPIYMLFILTSVLQVNGFINKFTFLPKYLEQQYGKSTAEAIFLIGVYSLPPICLGYLIGGFIMKKFKITVKKAAYLAFCLSVFEYLLFLCHFMLTCDNAAVAGLTTSYKGVQHQLHVESKVLADCNTRCSCSTNTWDPVCGDNGVAYMSACLAGCKKFVGTGTNMVFQDCSCIQSLGNSSAVLGLCKKGPECANRLQYFLILTIIISFIYSLTAIPGYMVFLRCVKSEEKSLGVGLHTFCIRVFAGIPAPVYFGALIDRTCLHWGTLKCGQRGACRMYDINSFRHIYLGLPIALRGSSYLPAFFILILMRKFQFPGDIDSSATDHTEMMLGEKESEHTDVHGSPQVENDGELKTKL

How the values were obtained:
[1] = target: T1, Solute carrier organic anion transporter family member 1A1 (Rattus norvegicus, UniProt P46720); assay: (§1) TP_TRANSPORTER: uptake in Oatp1-expressing COS-7 cells; assay type: functional, cell-based; conditions: monkey
T1 sequence (P46720 whole entry): B1 chain

[2] = substrate: C[C@]12CC[C@@H]3c4ccc(O)cc4CC[C@H]3[C@@H]1CC[C@@H]2O[C@@H]1O[C@H](C(=O)O)[C@@H](O)[C@H](O)[C@H]1O; assay: as §1; assay type: functional, cell-based

Molecule	Activity [1]	Km [2]
CNc1nc2c(Cc3cccnc3)c(C)c(OS(=O)(=O)O)c(C)c2s1 [E3040 SULFATE]	substrate [+]	–
C[C@]12CC[C@@H]3c4ccc(OS(=O)(=O)O)cc4CC[C@H]3[C@@H]1CCC2=O [ESTRONE SULFURIC ACID]	substrate [+]	–
B1	–	20.4 µM
